Data taken from patent US20220323455A1, “FUSED HETEROCYCLIC DERIVATIVES AS ANTIVIRAL AGENTS” (priority 2019, published 2022).

System: HBV
Test: HBV replication inhibition assay (BDNA assay) in HepG2.2.15 cells
Format: cell-based, Hepatitis B virus
Details: 6 days, encapsidated HBV DNA in supernatant
Method: HBV replication inhibition by the disclosed compounds were determined in cells infected or transfected with HBV or cells with stably integrated HBV, such as HepG2.2.15 cells (Sells et al. 1987). In this example, HepG2.2.15 cells were maintained in cell culture medium containing 10% fetal bovine serum (FBS), Geneticin, L-glutamine, penicillin and streptomycin. HepG2.2.15 cells were seeded in 96-well plates at a density of 40,000 cells/well and were treated with serially diluted compounds at a final DMSO concentration of 0.5% either alone or in combination by adding drugs in a checker box format. Cells were incubated with compounds for three days, after which medium was removed and fresh medium containing compounds was added to cells and incubated for another three days. At day 6, supernatant was removed and treated with DNase at 37° C. for 60 minutes, followed by enzyme inactivation at 75° C. for 15 minutes. Encapsidated HBV DNA was released from the virions and covalently linked HBV polymerase by incubating in lysis buffer (Affymetrix QS0010) containing 2.5 μg proteinase K at 50° C. for 40 minutes. HBV DNA was denatured by addition of 0.2 M NaOH and detected using a branched DNA (BDNA) QuantiGene assay kit according to manufacturer recommendation (Affymetrix). HBV DNA levels were also quantified using qPCR, based on amplification of encapsidated HBV DNA extraction with QuickExtraction Solution (Epicentre Biotechnologies) and amplification of HBV DNA using HBV specific PCR probes that can hybridize to HBV DNA and a fluorescently labeled probe for quantitation. In addition, cell viability of HepG2.2.15 cells incubated with test compounds alone or in combination was determined by using CellTitre-Glo reagent according to the manufacturer protocol (Promega). The mean background signal from wells containing only culture medium was subtracted from all other samples, and percent inhibition at each compound concentration was calculated by normalizing to signals from HepG2.2.15 cells treated with 0.5% DMSO using equation E1.
% inhibition(DMSOave−Xi)DMSOave×100% E1:
where DMSOave is the mean signal calculated from the wells that were treated with DMSO control (0% inhibition control) and Xi is the signal measured from the individual wells. EC50 values, effective concentrations that achieved 50% inhibitory effect, were determined by non-linear fitting using Graphpad Prism software (San Diego, Calif.) and equation E2.
Y=Ymin+(Ymax−Ymin)/(1+10(Log EC50−X)×HillSlope) E2:
where Y represents percent inhibition values and X represents the logarithm of compound concentrations.
Selected disclosed compounds were assayed in the HBV replication assay (BDNA assay), as described above, and a representative group of these active compounds is shown in Table 5.

Row | Structure (SMILES) | EC50 [nM]
1 | C#CC1(O)CCC(F)(F)c2c3c(nn2C1)C[C@@H](C)N(C(=O)Nc1ccnc(Br)c1F)C3 (single isomer, unassigned) [Example 99, (3R,8S*)—N-(2-Bromo-3-fluoropyridin-4-yl)-8-ethynyl-11,11-difluoro-8-hydroxy-3-methyl-3,4,8,9,10,11-hexahydro-1H-pyrido[4′,3′:3,4]pyrazolo[1,5-a]azepine-2(7H)-carboxamide] | 275
2 | N#CCC1(O)CCC(F)(F)c2c3c(nn2C1)CCN(C(=O)Nc1ccnc(C(F)F)c1F)C3 (single isomer, unassigned) [Example 42, (R*)-8-(Cyanomethyl)-N-(2-(difluoromethyl)-3-fluoropyridin-4-yl)-11,11-difluoro-8-hydroxy-3,4,89,10,11-hexahydro-1H-pyrido[4′,3′:3,4]pyrazolo[1,5-a]azepine-2(7H)-carboxamide] | 163
3 | CCC1(O)CCC(F)(F)c2c3c(nn2C1)CCN(C(=O)Nc1ccc(F)c(C#N)c1)C3 (single isomer, unassigned) [Example 62, (R*)—N-(3-Cyano-4-fluorophenyl)-8-ethyl-11,11-difluoro-8-hydroxy-3,4,8,9,10,11-hexahydro-1H-pyrido[4′,3′:3,4]pyrazolo[1,5-a]azepine-2(7H)-carboxamide] | 42
4 | O=C(Nc1ccc(F)c(C(F)(F)F)c1)N1CCc2nn3c(c2C1)C(F)(F)CCC(COCC(F)F)C3 (single isomer, unassigned) [Example 30, (R*)-8-((2,2-Difluoroethoxy)methyl)-11,11-difluoro-N-(4-fluoro-3-(trifluoromethyl)phenyl)-3,4,8,9,10,11-hexahydro-1H-pyrido[4′,3′:3,4]pyrazolo[1,5-a]azepine-2(7H)-carboxamide] | 267
5 | O=C(Nc1ccnc(Br)c1F)N1CCc2nn3c(c2C1)C(F)(F)CCC(O)(COCC(F)F)C3 (single isomer, unassigned) [Example 35, (S*)—N-(2-Bromo-3-fluoropyridin-4-yl)-8-((2,2-difluoroethoxy)methyl)-11,11-difluoro-8-hydroxy-3,4,8,9,10,11-hexahydro-1H-pyrido[4′,3′:3,4]pyrazolo[1,5-a]azepine-2(7H)-carboxamide] | 98
6 | N#Cc1c(F)ccc(NC(=O)N2CCc3nn4c(c3C2)C(F)(F)CCC(CO)C4)c1F (single isomer, unassigned) [Example 21, (S*)—N-(3-Cyano-2,4-difluorophenyl)-11,11-difluoro-8-(hydroxymethyl)-3,4,8,9,10,11-hexahydro-1H-pyrido[4′,3′:3,4]pyrazolo[1,5-a]azepine-2(7H)-carboxamide] | 1
7 | C#CC1(O)CCC(F)(F)c2c3c(nn2C1)C[C@@H](C)N(C(=O)Nc1ccc(F)c(C#N)c1)C3 (single isomer, unassigned) [Example 95, (3R,8R*)—N-(3-Cyano-4-fluorophenyl)-8-ethynyl-11,11-difluoro-8-hydroxy-3-methyl-3,4,8,9,10,11-hexahydro-1H-pyrido[4′,3′:3,4]pyrazolo[1,5-a]azepine-2(7H)-carboxamide] | 13
8 | C[C@@H]1Cc2nn3c(c2CN1C(=O)Nc1ccnc(Br)c1F)C(F)(F)CCC(F)(CO)C3 (single isomer, unassigned) [Example 115, (3R,8R*)—N-(2-Bromo-3-fluoropyridin-4-yl)-8,11,11-trifluoro-8-(hydroxylmethyl)-3-methyl-3,4,8,9,10,11-hexahydro-1H-pyrido[4′,3′:3,4]pyrazolo[1,5-a]azepine-2(7H)-carboxamide] | 5
9 | C[C@@H]1Cc2nn3c(c2CN1C(=O)Nc1ccnc(C(F)F)c1F)C(F)(F)CCC(O)(CC#N)C3 (single isomer, unassigned) [Example 90, (3R,8S*)-8-(Cyanomethyl)-N-(2-(difluoromethyl)-3-fluoropyridin-4-yl)-11,11-difluoro-8-hydroxy-3-methyl-3,4,8,9,10,11-hexahydro-1H-pyrido[4′,3′:3,4]pyrazolo[1,5-a]azepine-2(7H)-carboxamide] | 54
10 | C#CC1(O)CCC(F)(F)c2c3c(nn2C1)CCN(C(=O)Nc1ccc(F)c(C#N)c1)C3 (single isomer, unassigned) [Example 59, (R*)—N-(3-Cyano-4-fluorophenyl)-8-ethynyl-11,11-difluoro-8-hydroxy-3,4,8,9,10,11-hexahydro-1H-pyrido[4′,3′:3,4]pyrazolo[1,5-a]azepine-2(7H)-carboxamide] | 5
11 | COC(=O)NCC1CCC(F)(F)c2c3c(nn2C1)C[C@@H](C)N(C(=O)Nc1ccnc(Br)c1F)C3 (single isomer, unassigned) [Example 109, Methyl (((3R,8S*)-2-((2-bromo-3-fluoropyridin-4-yl)carbamoyl)-11,11-difluoro-3-methyl-2,3,4,7,8,9,10,11-octahydro-1H-pyrido[4′,3′:3,4]pyrazolo[1,5-a]azepin-8-yl)methyl)carbamate] | 32
12 | C[C@@H]1Cc2nn3c(c2CN1C(=O)Nc1ccnc(Br)c1F)C(F)(F)CCC(O)(CC#N)C3 (single isomer, unassigned) [Example 91, (3R,8R*)—N-(2-Bromo-3-fluoropyridin-4-yl)-8-(cyanomethyl)-11,11-difluoro-8-hydroxy-3-methyl-3,4,8,9,10,11-hexahydro-1H-pyrido[4′,3′:3,4]pyrazolo[1,5-a]azepine-2(7H)-carboxamide] | 30
13 | O=C(Nc1ccnc(C(F)F)c1F)N1CCc2nn3c(c2C1)C(F)(F)CCC(O)(COCC(F)F)C3 (single isomer, unassigned) [Example 33, (R*)-8-((2,2-Difluoroethoxy)methyl)-N-(2-(difluoromethyl)-3-fluoropyridin-4-yl)-11,11-difluoro-8-hydroxy-3,4,8,9,10,11-hexahydro-1H-pyrido[4′,3′:3,4]pyrazolo[1,5-a]azepine-2(7H)-carboxamide] | 356
14 | O=C(Nc1ccnc(C(F)F)c1F)N1CCc2nn3c(c2C1)C(F)(F)CC(O)CC3 (single isomer, unassigned) [Example 142, (S*)—N-(2-(Difluoromethyl)-3-fluoropyridin-4-yl)-11,11-difluoro-9-hydroxy-3,4,8,9,10,11-hexahydro-1H-pyrido[4′,3′:3,4]pyrazolo[1,5-a]azepine-2(7H)-carboxamide] | 46
15 | O=C(Nc1ccnc(Br)c1F)N1CCc2nn3c(c2C1)C(F)(F)CCC(O)(CF)C3 (single isomer, unassigned) [Example 39, (R*)—N-(2-Bromo-3-fluoropyridin-4-yl)-11,11-difluoro-8-(fluoromethyl)-8-hydroxy-3,4,8,9,10,11-hexahydro-1H-pyrido[4′,3′:3,4]pyrazolo[1,5-a]azepine-2(7H)-carboxamide] | 144
16 | COC(=O)NCC1CCC(F)(F)c2c3c(nn2C1)C[C@@H](C)N(C(=O)Nc1ccc(F)c(C#N)c1)C3 (single isomer, unassigned) [Example 108, Methyl (((3R,8S*)-2-((3-cyano-4-fluorophenyl)carbamoyl)-11,11-difluoro-3-methyl-2,3,4,7,8,9,10,11-octahydro-1H-pyrido[4′,3′:3,4]pyrazolo[1,5-a]azepin-8-yl)methyl)carbamate] | 12
17 | C[C@@H]1Cc2nn3c(c2CN1C(=O)Nc1ccnc(C(F)F)c1F)C(F)(F)CCC(F)(CO)C3 (single isomer, unassigned) [Example 116, (3R,8R*)—N-(2-(Difluoromethyl)-3-fluoropyridin-4-yl)-8,11,11-trifluoro-8-(hydroxymethyl)-3-methyl-3,4,8,9,10,11-hexahydro-1H-pyrido[4′,3′:3,4]pyrazolo[1,5-a]azepine-2(7H)-carboxamide] | 10
18 | O=C(Nc1ccnc(Br)c1F)N1CCc2nn3c(c2C1)C(F)(F)CCC(CO)C3 (single isomer, unassigned) [Example 22, (S*)—N-(2-Bromo-3-fluoropyridin-4-yl)-11,11-difluoro-8-(hydroxymethyl)-3,4,8,9,10,11-hexahydro-1H-pyrido[4′,3′:3,4]pyrazolo[1,5-a]azepine-2(7H)-carboxamide] | 4
19 | O=C(Nc1ccnc(C(F)F)c1F)N1CCc2nn3c(c2C1)C(F)(F)CC(O)CC3 (single isomer, unassigned) [Example 139, (R*)—N-(2-(Difluoromethyl)-3-fluoropyridin-4-yl)-11,11-difluoro-9-hydroxy-3,4,8,9,10,11-hexahydro-1H-pyrido[4′,3′:3,4]pyrazolo[1,5-a]azepine-2(7H)-carboxamide] | 21
